Source: PubChem BioAssay (NCI)
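A five-concentration, 48-hour dose response in 96-well plates underlies each endpoint, interpolated linearly between surrounding concentrations. GI50 marks 50% less growth. TGI is the concentration that stops growth completely.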

Legend:
Assay in all cases: growth of human tumour cells (NCI), 48 h
ACHN renal = system: ACHN renal
SF-539 CNS = system: SF-539 CNS
BT-549 breast = system: BT-549 breast
RPMI-8226 leukemia = system: RPMI-8226 leukemia
DU-145 prostate = system: DU-145 prostate
TK-10 renal = system: TK-10 renal
RXF 393 renal = system: RXF 393 renal
UACC-257 melanoma = system: UACC-257 melanoma
CCRF-CEM leukemia = system: CCRF-CEM leukemia
NCI-H522 lung = system: NCI-H522 lung

Compound | TGI (ACHN renal) | TGI (SF-539 CNS) | TGI (BT-549 breast) | TGI (RPMI-8226 leukemia) | TGI (DU-145 prostate) | TGI (TK-10 renal) | TGI (RXF 393 renal) | TGI (UACC-257 melanoma) | TGI (CCRF-CEM leukemia) | TGI (NCI-H522 lung) | GI50 (ACHN renal) | GI50 (SF-539 CNS) | GI50 (BT-549 breast) | GI50 (NCI-H522 lung) | GI50 (DU-145 prostate) | GI50 (TK-10 renal)
O=C1[C@H](O)[C@@H]2C(O)O[C@H]3[C@@H]2N1C[C@H]3[Si](c1ccccc1)(c1ccccc1)c1ccccc1 (stereo partly drawn) | > 100 µM | > 100 µM | > 100 µM | > 100 µM | > 100 µM | > 100 µM | > 100 µM | > 100 µM |  |  |  |  |  |  |  | 
NC(=O)CNC(=O)[C@@H]1CC(OCCC(=O)O)CN1C(=O)C1CCCN1C(=O)OCc1ccccc1 (stereo partly drawn) | > 100 µM |  | > 100 µM | > 100 µM | > 100 µM | > 100 µM | > 100 µM | > 100 µM | > 100 µM | > 100 µM |  |  |  |  |  | 
O=S1(=O)c2ccccc2Oc2ccc(C(/C=N/O)=N/O)cc21 | > 100 µM | 84.8 µM |  | 53.5 µM | 53 µM | 30.8 µM | 63.6 µM |  | 72.1 µM | 26.7 µM |  |  |  |  |  | 
C1=C(c2ccccc2)SC(N2CCCCC2)S1 (stereo not drawn) |  | > 100 µM |  | > 100 µM |  | > 100 µM | > 100 µM | > 100 µM | > 100 µM | > 100 µM |  |  |  |  |  | 
CCn1nc(C)c2c1C(=O)NCC(=O)N2 | > 100 µM | > 100 µM | > 100 µM |  | > 100 µM | > 100 µM | > 100 µM | > 100 µM |  | > 100 µM |  |  |  |  |  | 
O=C(Nc1ccccc1)N(C1=NCC(CI)S1)c1ccc(F)c(F)c1 (stereo not drawn) | > 100 µM | > 100 µM |  | > 100 µM | > 100 µM | > 100 µM |  | > 100 µM | 75.9 µM |  |  |  |  |  |  | 
O=c1[nH]/c(=C/c2ccc(OCc3ccccc3)cn2)c(=O)[nH]/c1=C/c1ccccc1 | > 100 µM | > 67 µM | > 100 µM | > 100 µM |  | > 100 µM | > 100 µM | > 100 µM |  |  |  |  |  |  |  | 
S=C1c2ccc(Cl)cc2-n2cnnc2C2CSCN12 (stereo not drawn) | > 100 µM |  | > 100 µM | > 100 µM | > 100 µM | > 100 µM | > 100 µM | > 100 µM | > 100 µM | > 100 µM |  |  |  |  |  | 
Cc1cc(C)nc(NS(=O)(=O)c2ccc(NC(=O)c3c4ccccc4nc4ccccc34)cc2)n1 | > 100 µM | > 100 µM | > 100 µM | > 100 µM | > 100 µM | > 100 µM |  | > 100 µM | > 100 µM | > 100 µM |  |  |  |  |  | 
COc1ccc(N2C(=O)C3c4[nH]c5ccc(OCc6ccccc6)cc5c4C4CCC(c5ccccc5)CC4C3C2=O)cc1 (stereo not drawn) | 41.5 µM | 7.17 µM | 17 µM |  | > 100 µM | 42.2 µM | 21.1 µM | > 100 µM | 26.8 µM | > 44.6 µM |  |  |  |  |  | 
CC(=O)NC1C(OCc2ccccc2)OC(CO)C(O)C1OCC(=O)N1CCCC1C(=O)N[C@@H](CCC(=O)NCCCCNc1c2ccccc2nc2cccc([N+](=O)[O-])c12)C(N)=O (stereo partly drawn) | > 100 µM | > 100 µM | 43.7 µM | > 100 µM | > 100 µM | > 100 µM |  |  |  |  |  |  |  |  |  | 
Cc1ccc(C)c(NC(=O)C(=O)C(C(=O)c2ccc3ccccc3c2)C2OC(=O)c3ccccc32)c1 (stereo not drawn) | 87.1 µM | 17.4 µM |  | > 100 µM |  | 64.6 µM | 9.74 µM | 36.5 µM | 64.9 µM | 22.5 µM |  |  |  |  |  | 
O=C(O)CN(CC(=O)O)C1CCCCC1N1CC(=O)OC(=O)C1 (stereo not drawn) | > 100 µM | > 100 µM | > 100 µM | > 100 µM | > 100 µM | > 100 µM |  | > 100 µM | > 100 µM | > 100 µM |  |  |  |  |  | 
NC(=O)Nc1c(Cl)cc(S(N)(=O)=O)cc1Cl |  | > 100 µM | > 100 µM | > 100 µM | > 100 µM | > 100 µM | > 100 µM | > 100 µM | > 100 µM | > 100 µM |  |  |  |  |  | 
O=C(O)CC(Cc1ccccc1Cl)C(=O)O (stereo not drawn) | > 100 µM |  | > 100 µM | > 100 µM | > 100 µM | > 100 µM | > 100 µM | > 100 µM | > 100 µM | > 100 µM |  |  |  |  |  | 
Cn1nc2ccc([N+](=O)[O-])c(Cn3nnc4ccccc43)c2n1 | > 100 µM | > 100 µM | > 100 µM | > 100 µM | > 100 µM | > 100 µM | > 100 µM | > 100 µM | > 100 µM |  |  |  |  |  |  | 
CN1CCC(CNc2cc(C3(C(=O)Nc4cc(C(=O)Nc5ccc(Cl)c(C(F)(F)F)c5)ccc4F)CC3)ncn2)CC1 | 4.98 µM | 3.19 µM | 9.89 µM |  | 15.8 µM | 12.8 µM |  |  |  | 4.55 µM | 2.16 µM | 1.61 µM | 3.01 µM | 2.01 µM | 3.99 µM | 3.89 µM
N=C1C(=N)c2ccccc2-c2ccccc21.[Cl-].[Ru+2].c1ccc(-c2ccccn2)nc1.c1ccc(-c2ccccn2)nc1 | > 100 µM | > 100 µM |  |  |  | > 100 µM | > 100 µM | > 100 µM | > 100 µM | > 100 µM |  |  |  |  |  | 
CCCCCOc1ccc(C=Nc2ccc(CCc3ccc(N=Cc4ccc(OCCCCC)cc4)cc3)cc2)cc1 |  | > 100 µM |  | > 100 µM |  |  | > 100 µM | > 100 µM | > 100 µM | > 100 µM |  |  |  |  |  | 
COc1ccc2c(c1)C(=O)CC1c3cnccc3C(=O)N21 (stereo not drawn) | > 100 µM | > 100 µM | > 100 µM | > 100 µM | > 100 µM | > 100 µM | > 100 µM | > 100 µM |  | > 100 µM |  |  |  |  |  | 
Cc1ccc(S(=O)(=O)NC(=O)Nc2nnc(S(N)(=O)=O)s2)cc1 | > 100 µM | > 100 µM |  | > 100 µM | > 100 µM | > 100 µM | > 100 µM |  | > 100 µM |  |  |  |  |  |  | 
COc1cccc(N2C(=O)CSC2c2cccc(Oc3ccccc3)c2)c1 (stereo not drawn) | 41 µM | 15.9 µM | 45.6 µM |  | > 100 µM | 25.3 µM | 39.1 µM | 12.3 µM | > 100 µM | 20.6 µM |  |  |  |  |  | 
Cn1c(=O)c2[nH]c(N/N=N/c3nncs3)nc2n(C)c1=O | > 100 µM | > 100 µM | > 100 µM |  | > 100 µM | > 100 µM | > 100 µM | > 100 µM | > 100 µM |  |  |  |  |  |  | 
C#CCNC(CSSCC(N)C(=O)O)C(=O)O (stereo not drawn) | > 100 µM | > 100 µM |  | > 100 µM | > 100 µM | > 100 µM | > 100 µM | > 100 µM | > 100 µM | > 100 µM |  |  |  |  |  | 
